Experimental data reported in patent US20040259823A1, “Cationic amphiphiles as transfection vehicles” (priority 2001, published 2004).

Key:
Type in all cases: cell-based
HepG2 [1] = test: Cell survival after transfection (Table 3); settings: HepG2, DOPE; note: tested at 6.8 µM
Experimental: (§1) Transfections were carried out following standard protocols as is described in EP 0755924. In numerous publications variations of transfection protocols are given. A person acquainted with the field of non-viral transfections, in particular transfections using cationic amphiphiles will be able to use the cationic amphiphiles of the invention in transfection methods known per se. In standard experiments COS-7 cells are transfected with plasmid DNA containing the β-galactosidase reporter gene. Upon successful transfection the cell produces the enzyme β-galactosidase whose activity can be easily measured. Other plasmids comprising alternative reporter genes such as the gene encoding Green Fluorescent Protein or Chloroamphenicol Acetyl Transferase are suited as well. For analyzing stable transfection a plasmid containing the neomycin resistance gene can be used. Toxicity of the cationic amphiphiles towards the cells can be monitored qualitatively and quantitatively by visual inspection of the cells and by a protein determination.
(§2) COS-7 and HepG2 cells were cultured in Dulbecco's Modified Eagle Medium (DMEM Gibco The Netherlands) containing 7% of fetal calf serum, 2 mM L-Glutamine, 100 units/ml of penicilin and […] of streptomycin at 37° C. in CO2/air (1:19).
(§3) Cells (1×10^5 cells/well) were seeded in 12-well plates and were allowed to grow overnight.
(§4) The complex of cationic amphiphile/helper lipid (1:1) with pCMV GFP was prepared at the charge ratio 2.5:1 (15 nmol lipid and 1 μg DNA), in 100 μl 10 mM HEPES (pH=7.4, 150 mM NaCl). After 10-15 min incubation at room temperature, the resulting complex was diluted in 1 ml medium (DMEM) and 0.5 ml of the mixture was added to the cells and incubated for 4 h at 37° C. The transfection efficiency expressed as a percentage of GFP positive cells was measured by FACS (Fluorescence Activated Cell Soorting) 48 hours after the transfection.
(§5) Control wells underwent identical steps except that no cationic amphiphile was added.

COS-7 and HepG2 cells [2] = test: Transfection with pCMV GFP plasmid, % GFP positive cells by FACS (cell line not given); settings: cell line and helper lipid not given
Experimental: as §1
(§6) A solution of cationic amphiphile in a 50/50 molar ratio with DOPE, DOPC or cholesterol in chloroform was dried under a stream of nitrogen. The residual solvent was removed under vacuum. The lipid film was hydrated in water at room temperature and sonicated to clarity in a bath sonicator immediately before use.
(§7) A 4.7 kb pair plasmid containing the GFP reporter gene under control of the cytomegalovirus immediate early gene promoter/enhancer (pCMV GFP).DNA was isolated from E. coli using a Qiagen Plasmid Kit (QIAGEN Inc, USA). The plasmid concentration was determined by measuring the absoption at 260 nm using the relation 1.0 OD=50 μg/ml. The OD260/OD280 value was 1.95.
as §2, §3, §4, §5

COS-7 and HepG2 cells [3] = test: Cell survival after transfection (cell line not given); settings: cell line and helper lipid not given; for % surv / % surv mean: Table 11
Experimental: as §1, §2, §3, §4, §5

HepG2 [4] = test: Transfection with pCMV GFP plasmid, % GFP positive cells by FACS (Table 3); settings: HepG2, DOPE
Experimental: as §1, §6, §7, §2, §3, §4, §5

COS-7 and HepG2 cells [5] = test: Toxicity towards the cells by protein determination versus control wells; settings: protein determination compared with the reference value of control wells
Experimental: as §1, with “determination. Control wells underwent identical steps except that no cationic amphiphile was added.” for “determination.”
Throughout, for % surv mean: tested at 6.8 µM.

Row | SMILES | % surv cells (HepG2 [1]; first value) [%] | % surv cells Mean (HepG2 [1]) [%] | % surv cells (HepG2 [1]; second value) [%] | % TE (COS-7 and HepG2 cells [2]; Table 4) [%] | % TE (COS-7 and HepG2 cells [2]; Table 5) [%] | % TE (COS-7 and HepG2 cells [2]; Table 6) [%] | % TE (COS-7 and HepG2 cells [2]; Table 11, first value) [%] | % TE mean (COS-7 and HepG2 cells [2]; Table 11) [%] | % TE (COS-7 and HepG2 cells [2]; Table 11, second value) [%] | % surv cells (COS-7 and HepG2 cells [3]; Table 4) [%] | % surv cells (COS-7 and HepG2 cells [3]; Table 5) [%] | % surv cells (COS-7 and HepG2 cells [3]; Table 6) [%] | % surv (COS-7 and HepG2 cells [3]; first value) [%] | % surv mean (COS-7 and HepG2 cells [3]) [%] | % surv (COS-7 and HepG2 cells [3]; second value) [%] | % TE (HepG2 [4]; first value) [%] | % TE mean (HepG2 [4]) [%] | % TE (HepG2 [4]; second value) [%] | other results
1 | CCCCCCCC/C=C\CCCCCCCC[n+]1ccc(CCCCCCCCCCCCCCC)cc1.[Cl-] [SF44, 1-(9′-cis-octadecenyl)-4-pentadecyl-pyridinium Chloride] | 45.21 | 49.18 | 53.15 | 10.13 | 1.64 | 8.89 | 9.1 | 8.67 | 8.24 | 66.51 | 92.1 | 93.99 | 90.36 | 88.91 | 87.46 | 12.53 | 11.185 | 9.84 | 
2 | CCCCCCCC/C=C\CCCCCCCC[n+]1ccc(C)cc1.[Cl-] [SF38, 1-(9′-cis-octadecenyl)-4-methyl-pyridinium Chloride] | 23.6 | 22.05 | 20.5 | 5.43 |  | 0.47 |  |  |  | 63.19 |  | 94.13 |  |  |  | 0.82 | 0.555 | 0.29 | 
3 | CCCCCCCC/C=C\CCCCCCCC[n+]1ccc(CCC)cc1.[Cl-] [SF39, 1-(9′-cis-octadecenyl)-4-propyl-pyridinium Chloride] | 24.55 | 28.015 | 31.48 | 4.38 |  | 0.84 |  |  |  | 66.48 |  | 92.2 |  |  |  | 0.1 | 0.085 | 0.07 | 
4 | CCCCCCCCCCCCOC(=O)c1cc[n+](CCCCCCCCCCCC)cc1.[Cl-] [SF53, 1-dodecyl-4-(-carbo-(dodecyloxy)) pyridinium Chloride] | 37.51 | 37.51 |  | 9.04 | 0.71 | 0.56 | 6.67 | 6.67 |  | 65.91 | 91.6 | 91.74 | 84.51 | 84.51 |  | 2.13 | 2.13 |  | 
5 | CCCCCCCC/C=C\CCCCCCCC[n+]1ccc(CCCCCCCCCCCCCCCCC)cc1.[Cl-] [SF45, 1-(9′-cis-octadecenyl)-4-(heptadecyl) pyridinium Chloride] | 40.24 | 31.565 | 22.89 | 9.71 | 3.38 | 5.35 | 0.27 | 0.15 | 0.03 | 67.4 | 93.02 | 92.61 | 90.01 | 87.55 | 85.09 | 8.93 | 6.465 | 4 | 
6 | CCCCCCCC/C=C\CCCCCCCC[n+]1ccc(CCCCCCCCCCC)cc1 [SF43, 1-(9′-cis-octadecenyl)-4-undecyl-pyridinium Chloride] | 52.11 | 53.845 | 55.58 | 9.18 | 0.55 | 10.22 | 24.6 | 24.2 | 23.8 | 68.12 | 85.51 | 86.86 | 85.42 | 84.395 | 83.37 | 5.71 | 5.805 | 5.9 | 
7 | CCCCCCCC/C=C\CCCCCCCC[n+]1ccc(CCCCC)cc1.[Cl-] [SF40, 1-(9′-cis-octadecenyl)-4-pentyl-pyridinium Chloride] | 30.55 | 30.09 | 29.63 | 5.18 |  | 0.16 |  |  |  | 69.87 |  | 94.54 |  |  |  | 0.04 | 0.09 | 0.14 | 
8 | CCCCCCCC/C=C\CCCCCCCCCc1cc[n+](CCCCCCCC/C=C\CCCCCCCC)cc1.[Cl-] [SF6, 1-(9′-cis-octadecenyl)-4-(10″-cis-nonadecenyl) pyridinium Chloride] |  |  |  |  |  |  |  |  |  |  |  |  |  |  |  |  |  |  | toxicity towards the cells (COS-7 and HepG2 cells [5]): marginal toxicity; % TE (COS-7 and HepG2 cells [2]; Table 1): 14.44%; % TE (COS-7 and HepG2 cells [2]; Table 2): 11.48%; % TE (COS-7 and HepG2 cells [2]; Table 7): 30.91%; % TE (COS-7 and HepG2 cells [2]; Table 8): 9.96%; % TE (COS-7 and HepG2 cells [2]; Table 9): 3.92%; % TE (COS-7 and HepG2 cells [2]; Table 10): 9.14%; % surv cells (COS-7 and HepG2 cells [3]; Table 1): 75.3%; % surv cells (COS-7 and HepG2 cells [3]; Table 2): 47.3%; % surv cells (COS-7 and HepG2 cells [3]; Table 7): 84.06%; % surv cells (COS-7 and HepG2 cells [3]; Table 8): 57.21%; % surv cells (COS-7 and HepG2 cells [3]; Table 9): 70.01%; % surv cells (COS-7 and HepG2 cells [3]; Table 10): 61.57%
9 | CCCCCCCC/C=C\CCCCCCCCCc1cc[n+](CCCCCCCCCCCCCCCCCC)cc1.[Cl-] [SF46, 1-stearyl-4-(10′-cis-nonadecenyl)-pyridinium Chloride] | 16.79 | 15.445 | 14.1 | 9.17 | 2.71 | 1.11 | 10.6 | 10.6 |  | 72.57 | 76.34 | 93.55 | 87.02 | 87.02 |  | 11.65 | 9.07 | 6.49 | 
